Results as given in the NIST ThermoML archive (doi:10.1016/j.tca.2006.05.019).
Values joined by “and” are separate entries in the source; they are usually repeats but may differ in a detail not shown here. Identical values can stand only once.

Assay: molar heat capacity at constant pressure
Details: 101.33 kPa, Crystal, Vacuum adiabatic calorimetry

O=P([O-])([O-])[O-].[Lu+3] [lutetium phosphate]
Details | molar heat capacity at constant pressure
6 K | 0.0357 J/K/mol
6.51 K | 0.0482 J/K/mol
7.08 K | 0.04711 J/K/mol
7.62 K | 0.06861 J/K/mol
8 K | 0.0845 J/K/mol
8.12 K | 0.1033 J/K/mol
8.6 K | 0.1229 J/K/mol
9.16 K | 0.1232 J/K/mol
9.76 K | 0.1438 J/K/mol
10 K | 0.165 J/K/mol
10.35 K | 0.1797 J/K/mol
10.95 K | 0.1984 J/K/mol
11.52 K | 0.2437 J/K/mol
12 K | 0.286 J/K/mol
12.05 K | 0.2931 J/K/mol
12.7 K | 0.351 J/K/mol
13.5 K | 0.4239 J/K/mol
14 K | 0.455 J/K/mol
14.29 K | 0.5003 J/K/mol
15.07 K | 0.5881 J/K/mol
15.96 K | 0.7241 J/K/mol
16 K | 0.676 J/K/mol
16.71 K | 0.8304 J/K/mol
17.45 K | 0.9728 J/K/mol
18 K | 0.962 J/K/mol
18.21 K | 1.085 J/K/mol
18.94 K | 1.201 J/K/mol
19.66 K | 1.318 J/K/mol
20 K | 1.32 J/K/mol
21.37 K | 1.733 J/K/mol
23.76 K | 2.354 J/K/mol
25 K | 2.54 J/K/mol
26.16 K | 3.067 J/K/mol
28.57 K | 3.861 J/K/mol
30 K | 4.26 J/K/mol
30.99 K | 4.819 J/K/mol
33.41 K | 5.784 J/K/mol
35 K | 6.39 J/K/mol
35.85 K | 6.862 J/K/mol
38.3 K | 7.989 J/K/mol
40 K | 8.83 J/K/mol
40.76 K | 9.131 J/K/mol
43.21 K | 10.48 J/K/mol
45 K | 11.45 J/K/mol
45.69 K | 11.91 J/K/mol
48.16 K | 13.16 J/K/mol
50 K | 14.18 J/K/mol
50.64 K | 14.44 J/K/mol
53.13 K | 15.87 J/K/mol
55 K | 16.93 J/K/mol
55.63 K | 17.16 J/K/mol
58.13 K | 18.55 J/K/mol
60 K | 19.67 J/K/mol
60.65 K | 19.95 J/K/mol
63.14 K | 21.38 J/K/mol
65 K | 22.38 J/K/mol
65.64 K | 22.73 J/K/mol
68.13 K | 23.87 J/K/mol
70 K | 25.05 J/K/mol
70.62 K | 25.39 J/K/mol
73.11 K | 26.96 J/K/mol
75 K | 27.68 J/K/mol
75.6 K | 28.21 J/K/mol
78.1 K | 29.35 J/K/mol
80 K | 30.26 J/K/mol
80.6 K | 30.69 J/K/mol
83.1 K | 31.8 J/K/mol
83.67 K | 31.97 J/K/mol
85 K | 32.8 J/K/mol
87.39 K | 33.75 J/K/mol
90 K | 35.28 J/K/mol
91 K | 35.61 J/K/mol
94.62 K | 37.52 J/K/mol
95 K | 37.72 J/K/mol
98.23 K | 39.26 J/K/mol
100 K | 40.1 J/K/mol
101.84 K | 41.01 J/K/mol
105.45 K | 42.73 J/K/mol
109.04 K | 44.39 J/K/mol
110 K | 44.74 J/K/mol
112.63 K | 45.93 J/K/mol
116.21 K | 47.44 J/K/mol
119.79 K | 49.06 J/K/mol
120 K | 49.17 J/K/mol
123.37 K | 50.6 J/K/mol
126.95 K | 52.07 J/K/mol
130 K | 53.39 J/K/mol
130.52 K | 53.52 J/K/mol
134.08 K | 54.89 J/K/mol
134.32 K | 54.86 J/K/mol
137.64 K | 56.24 J/K/mol
137.89 K | 56.62 J/K/mol
140 K | 57.42 J/K/mol
141.14 K | 57.72 J/K/mol
144.67 K | 59.01 J/K/mol
148.2 K | 60.39 J/K/mol
150 K | 61.25 J/K/mol
151.73 K | 61.98 J/K/mol
152.2 K | 62.31 J/K/mol
155.77 K | 63.71 J/K/mol
159.34 K | 65.02 J/K/mol
160 K | 64.87 J/K/mol
162.89 K | 66.21 J/K/mol
166.44 K | 67.34 J/K/mol
169.99 K | 68.5 J/K/mol
170 K | 68.32 J/K/mol
173.53 K | 69.66 J/K/mol
177.02 K | 70.76 J/K/mol
180 K | 71.58 J/K/mol
180.54 K | 71.85 J/K/mol
184.06 K | 72.87 J/K/mol
187.57 K | 73.85 J/K/mol
190 K | 74.68 J/K/mol
191.08 K | 75.02 J/K/mol
194.58 K | 76.04 J/K/mol
198.07 K | 77.09 J/K/mol
200 K | 77.61 J/K/mol
201.56 K | 78.14 J/K/mol
205.03 K | 78.99 J/K/mol
208.5 K | 79.97 J/K/mol
210 K | 80.41 J/K/mol
211.96 K | 80.72 J/K/mol
215.42 K | 81.51 J/K/mol
218.87 K | 82.45 J/K/mol
220 K | 83.06 J/K/mol
222.31 K | 83.48 J/K/mol
225.73 K | 84.25 J/K/mol
229.14 K | 85.1 J/K/mol
230 K | 85.6 J/K/mol
233.68 K | 86.38 J/K/mol
235.82 K | 87.08 J/K/mol
237.13 K | 87.2 J/K/mol
239.2 K | 87.62 J/K/mol
240 K | 88.01 J/K/mol
242.56 K | 88.31 J/K/mol
245.94 K | 89.1 J/K/mol
249.32 K | 90.16 J/K/mol
250 K | 90.31 J/K/mol
250.77 K | 90.59 J/K/mol
254.14 K | 91.42 J/K/mol
255.94 K | 91.8 J/K/mol
259.22 K | 92.4 J/K/mol
260 K | 92.51 J/K/mol
260.67 K | 92.92 J/K/mol
263.97 K | 93.72 J/K/mol
267.27 K | 94.37 J/K/mol
270 K | 94.6 J/K/mol
270.55 K | 94.95 J/K/mol
273.81 K | 95.59 J/K/mol
277.04 K | 96.19 J/K/mol
278.55 K | 96.28 J/K/mol and 96.26 J/K/mol
280 K | 96.61 J/K/mol
280.25 K | 96.75 J/K/mol
281.69 K | 96.92 J/K/mol and 96.9 J/K/mol
283.44 K | 97.38 J/K/mol
284.59 K | 97.37 J/K/mol
286.58 K | 97.91 J/K/mol
287.72 K | 97.96 J/K/mol
289.7 K | 98.45 J/K/mol
290 K | 98.53 J/K/mol
290.83 K | 98.55 J/K/mol
292.79 K | 99.14 J/K/mol
293.91 K | 99.28 J/K/mol
295.89 K | 99.69 J/K/mol
296.98 K | 99.82 J/K/mol
298.92 K | 100.3 J/K/mol
300 K | 100.4 J/K/mol
300.03 K | 100.5 J/K/mol
303.01 K | 100.9 J/K/mol
306.01 K | 101.4 J/K/mol
309.71 K | 101.9 J/K/mol
310 K | 102.1 J/K/mol
312.4 K | 102.4 J/K/mol
315.23 K | 102.9 J/K/mol
318.03 K | 103.6 J/K/mol
320 K | 103.8 J/K/mol
